Measured values taken from US9150566B2, “2-(1,2,3-triazol-2-yl)benzamide and 3-(1,2,3-triazol-2-YL)picolinamide derivatives as orexin receptor antagonists” (ACTELION PHARMACEUTICALS LTD., priority 2011, dated 2015).

Tests used:
human orexin-1 receptor = human orexin-1 receptor (Homo sapiens (Human), UniProt O43613); assay: In vitro intracellular calcium measurements (FLIPR), antagonistic activity on orexin-1 receptor; assay type: cell-based; conditions: CHO cells expressing human orexin-1 receptor; FLIPR; 3 nM orexin-A agonist; 120 min antagonist incubation; geometric mean if determined several times; read-out: IC50 OX1
Sequence of human orexin-1 receptor (O43613 whole entry): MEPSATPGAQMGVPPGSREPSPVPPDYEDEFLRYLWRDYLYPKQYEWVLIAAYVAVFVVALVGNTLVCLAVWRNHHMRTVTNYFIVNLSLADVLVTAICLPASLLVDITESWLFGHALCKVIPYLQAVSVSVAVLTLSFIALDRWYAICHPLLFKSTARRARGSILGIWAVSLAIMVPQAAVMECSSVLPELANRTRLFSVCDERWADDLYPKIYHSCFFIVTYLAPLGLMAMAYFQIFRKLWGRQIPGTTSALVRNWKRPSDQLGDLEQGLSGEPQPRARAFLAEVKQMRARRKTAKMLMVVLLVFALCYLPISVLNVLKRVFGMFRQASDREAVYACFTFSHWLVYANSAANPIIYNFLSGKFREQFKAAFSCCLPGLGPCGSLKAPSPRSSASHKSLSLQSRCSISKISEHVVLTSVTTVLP
Procedure: (§1) In Vitro Assay: Intracellular Calcium Measurements:
(§2) Chinese hamster ovary (CHO) cells expressing the human orexin-1 receptor and the human orexin-2 receptor, respectively, are grown in culture medium (Ham F-12 with L-Glutamine) containing 300 μg/mL G418, 100 U/mL penicillin, 100 μg/mL streptomycin and 10% heat inactivated fetal calf serum (FCS). The cells are seeded at 20′000 cells/well into 384-well black clear bottom sterile plates (Greiner). The seeded plates are incubated overnight at 37° C. in 5% CO2.
(§3) Within the Fluorescent Imaging Plate Reader (FLIPR Tetra, Molecular Devices), antagonists are added to the plate in a volume of 10 μL/well, incubated for 120 min and finally 10 μL/well of agonist is added. Fluorescence is measured for each well at 1 second intervals, and the height of each fluorescence peak is compared to the height of the fluorescence peak induced by 3 nM orexin-A with vehicle in place of antagonist. […] Optimized conditions were achieved by adjustment of pipetting speed and cell splitting regime. The calculated IC50 values may fluctuate depending on the daily cellular assay performance. Fluctuations of this kind are known to those skilled in the art.

human orexin-2 receptor = human orexin-2 receptor (Homo sapiens (Human), UniProt O43614); assay: In vitro intracellular calcium measurements (FLIPR), antagonistic activity on orexin-2 receptor; assay type: cell-based; conditions: CHO cells expressing human orexin-2 receptor; FLIPR; 3 nM orexin-A agonist; 120 min antagonist incubation; geometric mean if determined several times; read-out: IC50 OX2
Sequence of human orexin-2 receptor (O43614 whole entry): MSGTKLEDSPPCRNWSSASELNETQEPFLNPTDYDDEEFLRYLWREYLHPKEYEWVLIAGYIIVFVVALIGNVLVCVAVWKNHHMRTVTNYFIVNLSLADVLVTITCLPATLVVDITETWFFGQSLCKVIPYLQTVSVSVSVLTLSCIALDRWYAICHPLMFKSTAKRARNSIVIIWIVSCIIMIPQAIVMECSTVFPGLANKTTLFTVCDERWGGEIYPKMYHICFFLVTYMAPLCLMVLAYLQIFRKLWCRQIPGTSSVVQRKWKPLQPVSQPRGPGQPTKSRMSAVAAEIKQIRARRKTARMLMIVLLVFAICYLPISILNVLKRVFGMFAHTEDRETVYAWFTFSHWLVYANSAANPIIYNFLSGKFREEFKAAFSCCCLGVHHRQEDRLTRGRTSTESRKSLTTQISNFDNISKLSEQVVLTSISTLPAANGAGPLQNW
Procedure: as §1, §2, §3

Compound	IC50 (human orexin-1 receptor) [nM]	IC50 (human orexin-2 receptor) [nM]
Cc1ccnc(-c2cccc(C[C@@H]3COCCN3C(=O)c3ccccc3-n3nccn3)c2)n1 [Example 40, {(R)-3-[3-(4-Methyl-pyrimidin-2-yl)-benzyl]-morpholin-4-yl}-(2-[1,2,3]triazol-2-yl-phenyl)-methanone]	34	762
O=C(c1cc(F)c(F)cc1-n1nccn1)N1CCOC[C@H]1Cc1cc(-n2nccn2)ccc1F [Example 137, (4,5-Difluoro-2-[1,2,3]triazol-2-yl-phenyl)-[(R)-3-(2-fluoro-5-[1,2,3]triazol-2-yl-benzyl)-morpholin-4-yl]-methanone]	30	202
COc1ccc(C[C@@H]2COCCN2C(=O)c2ccccc2-n2nccn2)cc1-c1cccs1 [Example 10, [(R)-3-(4-Methoxy-3-thiophen-2-yl-benzyl)-morpholin-4-yl]-(2-[1,2,3]triazol-2-yl-phenyl)-methanone]	0.5	31
COc1ccc(C[C@@H]2COCCN2C(=O)c2c(C)cccc2-n2nccn2)cc1-c1ncon1 [Example 63, [(R)-3-(4-Methoxy-3-[1,2,4]oxadiazol-3-yl-benzyl)-morpholin-4-yl]-(2-methyl-6-[1,2,3]triazol-2-yl-phenyl)-methanone]	9	49
Cc1cccc(C(=O)N2[C@H](Cc3cccc(-n4nccn4)c3)COC[C@H]2C)c1-n1nccn1 [Example 70, [(3R,5R)-3-Methyl-5-(3-[1,2,3]triazol-2-yl-benzyl)-morpholin-4-yl]-(3-methyl-2-[1,2,3]triazol-2-yl-phenyl)-methanone]	5	2610
Cc1cc(C)c(-n2nccn2)c(C(=O)N2CCOC[C@H]2Cc2cccc(-c3ncon3)c2)c1 [Example 89, (3,5-Dimethyl-2-[1,2,3]triazol-2-yl-phenyl)-[(R)-3-(3-[1,2,4]oxadiazol-3-yl-benzyl)-morpholin-4-yl]-methanone]	7	420
Cc1cccc(C(=O)N2CCO[C@@H](C)[C@H]2Cc2cccc(-n3nccn3)c2)c1-n1nccn1 (single isomer, unassigned) [Example 164, [(2S,3R)-2-Methyl-3-(3-[1,2,3]triazol-2-yl-benzyl)-morpholin-4-yl]-(3-methyl-2-[1,2,3]triazol-2-yl-phenyl)-methanone or [(2R,3R)-2-Methyl-3-(3-[1,2,3]triazol-2-yl-benzyl)-morpholin-4-yl]-(3-methyl-2-[1,2,3]triazol-2-yl-phenyl)-methanone]	29	4040
Cc1ccc(-n2nccn2)c(C(=O)N2CCOC[C@H]2Cc2cccc(-c3cccs3)c2)c1 [Example 45, (5-Methyl-2-[1,2,3]triazol-2-yl-phenyl)-[(R)-3-(3-thiophen-2-yl-benzyl)-morpholin-4-yl]-methanone]	0.1	119
Cc1cccc(C(=O)N2CCOC[C@H]2Cc2cc(-c3ncccn3)ccc2F)c1-n1nccn1 [Example 157, [(R)-3-(2-Fluoro-5-pyrimidin-2-yl-benzyl)-morpholin-4-yl]-(3-methyl-2-[1,2,3]triazol-2-yl-phenyl)-methanone]	39	2590
C[C@@H]1CN(C(=O)c2ccccc2-n2nccn2)[C@H](Cc2cc(-c3ncccn3)ccc2F)CO1 [Example 148, [(2R,5R)-5-(2-Fluoro-5-pyrimidin-2-yl-benzyl)-2-methyl-morpholin-4-yl]-(2-[1,2,3]triazol-2-yl-phenyl)-methanone]	39	1940
O=C(c1ccc(Cl)cc1-n1nccn1)N1CCOC[C@H]1Cc1cccc(-c2ncon2)c1 [Example 86, (4-Chloro-2-[1,2,3]triazol-2-yl-phenyl)-[(R)-3-(3-[1,2,4]oxadiazol-3-yl-benzyl)-morpholin-4-yl]-methanone]	42	2650
O=C(c1cc(F)c(F)cc1-n1nccn1)N1CCOC[C@H]1Cc1cccc(-c2ncon2)c1 [Example 80, (4,5-Difluoro-2-[1,2,3]triazol-2-yl-phenyl)-[(R)-3-(3-[1,2,4]oxadiazol-3-yl-benzyl)-morpholin-4-yl]-methanone]	28	645
